Source: patent US12258425B2, “Peptide compositions and methods of use” (priority 2015, dated 2025)
Where a SMILES comes first, the peptide text is derived from it.

Assays:
[1] = Rabbit intravitreal ocular pharmacokinetic study (vitreous humor and retina); details: IVT in Poloxamer or Polysorbate formulations, 10 day course
Method: (§1) This study was conducted to determine the concentrations of Compound 1 in vitreous humor (VH) and retina tissue following intravitreal injections of male Dutch Belted rabbits. Concentrations were determined in tissues at 24, 72, 168, and 240 hours post-dose of a 50 μL bilateral intravitreal (IVT) dose.
(§2) Test system included the following: • Species/Strain/Gender: Male Dutch Belted Rabbits • Supplier: Covance Research Products, Inc. • Age Range: 4 to 5 months • Weight at Receipt (Range of • Weights): 1.51-1.85 kg • Administration Route: Intravitreal (IVT) injection • Duration of Treatment: Single Dose per eye • Formulation Concentrations: 2.0, 1.0, and 0.5 mg/mL Compound 1 triacetate • Dose Volume: 50 μL per eye
(§3) An intravitreal (IVT) injection ocular dose of 50 μL was administered to the globe of each of Dutch Belted rabbit eye.
(§4) At the respective time points the rabbits were euthanized by intravenous barbiturate overdose, and eyes were enucleated and snap frozen. Vitreous humor and retina were collected from all animals and analyzed for Compound 1 by LC-MS/MS

[2] = in vivo; details: Brown Norway, rat, 0.3 ug/eye, Mean concentration in rat retina
Method: (§5) Concentrations were determined in tissues at 24 (Group 1), and 72 hours (Groups 1 and 2) post-dose of a 5 μL bilateral intravitreal (IVT) dose.
(§6) Test system included the following: • Species/Strain/Gender: Norway Brown Rats • Supplier: Charles River, Inc. • Age Range: 1 to 2 months • Weight at Receipt (Range of • Weights): 165.9-181.2 g • Administration Route: Intravitreal (IVT) injection • Duration of Treatment: Single dose per eye • Formulation Concentrations: 0.06 mg/mL ONL-1204 triacetate • Dose Volume: 5 μL per eye Harvesting of Ocular Tissues
(§7) Rats were euthanized by intravenous barbiturate overdose, and eyes were enucleated and snap frozen. Vitreous humor (VH) and retina were collected from all animals and analyzed for Compound 1 by LC-MS/MS.
(§8) For each VH unknown or control blank: Weigh VH into a homogenization tube. Add 4 times the VH weight (mg) of ACN:water:1 M hydrochloric acid (70:20:10, v/v/v) (μL) to the homogenization tube. Add zirconium oxide beads, 2.8 and 1.4 mm size. Homogenize all samples on Precellys®: 5500 rpm, 3×30 second cycles, and 20 seconds between cycles, at a temperature between −10 to 0° C.
(§9) For each retina unknown or control blank: • Weigh retina tissue into a homogenization tube. • Add 4 times the tissue weight (mg) of ACN:water:1 M hydrochloric acid (70:20:10, v/v/v) (μL) to the homogenization tube. • Add zirconium oxide beads, 1.4 mm size. • Homogenize all samples on Precellys®: 5500 rpm, 3×30 second cycles, and 20 seconds between cycles, at a temperature between −10 to 0° C. Preparation of Standards, Samples, and Blanks Preparation of Calibration Stock and Working Standards
(§10) One hundred (100) μL of each vitreous humor sample with ACN: formic acid (1000:1, v/v) was then aliquoted. One hundred (100) μL of DMSO:water:formic acid (50:40:10) was added to each vitreous humor sample. The samples were vortex mixed then centrifuged for 10 minutes at 14,000 rpm (4° C.). To 50.0 μL supernatant, 100 μL of working internal standard (50,000 ng/mL APi1887 in water) (water for the blank without internal standard), and 150 μL of water were added. The samples were then vortex mixed and transferred to an autosampler plate for analysis.
(§11) In a polypropylene tube, 50 μL of Brown Norway rat unknown homogenate, bovine control blank or calibration standard Bovine homogenate was added. Fifty (50) μL of DMSO:water:formic acid (50:40:10) was added to each sample. The samples were then vortex mixed and centrifuged for 10 minutes at 14,000 rpm (4° C.). Eighty (80) μL of each sample supernatant was then aliquoted to a 96-well autosampler plate. Forty (40) μL of working internal standard (5,000 ng/mL APi1887 in water) (water for the blank without internal standard), and 120 μL of water were added. The samples were then mixed with a multichannel pipette and analyzed.

[3] = in vivo; details: male, Dutch Belted, rabbit
Method: as §1, §2, §3, §4

[4] = pH-solubility titration (visual: precipitate, turbidity, viscosity, gel); assay type: physicochemical
Method: Compound 1 obtained as a trihydrochloride salt, as described in Example 1, and was screened for aqueous solubility at different pHs, by carrying out pH titrations according to the following protocol. In some cases Met-12 was run through an identical experimental procedure to determine its solubility pH profile under the same conditions.
Compound 1 (10 mg) was dissolved in water (270-900 ? L) in a 2 mL clear plastic centrifuge tube with vortexing to give a pH ˜2.4 solution. […] This solution was then diluted with the appropriate amount of cosolvent or other excipient (sugar, surfactant etc.) to produce a clear acidic solution of 10 mg of Compound 1 in […] of the test solution at room temperature ([…]). Small aliquots of a basic solution (usually sodium hydroxide 1.0 M or 0.1 M, but sometimes other bases when investigating buffers) were added using a microliter syringe. Between additions the solution was mixed by vortexing, and the solution was inspected visually for precipitates of various types, turbidity, as a likely sign of microprecipitates, and viscosity to detect gel formation. pH measurements were taken at all these observation points. Some experiments titrated from the endogenous low pH to pH 10, but later titrations were not carried much above pH 7, or sometimes even lower.

[5] = rat, in vivo
Method: as §5, §6, §7, §8, §9, §10, §11

[6] = rabbit, in vivo
Method: as §1, §2, §3, §4

[7] = 0.025 mg/eye, Calculated Concentration in vitreous humor
[8] = 0.05 mg/eye, Calculated Concentration in retina
[9] = 0.05 mg/eye, Calculated Concentration in vitreous humor
[10] = 0.05 mg/eye, Mean concentration in retina
[11] = 0.1 mg/eye, Calculated Concentration in retina
[12] = 0.1 mg/eye, Calculated Concentration in vitreous humor
[13] = 0.1 mg/eye, Mean concentration in retina

CC[C@H](C)[C@H](NC(=O)[C@H](Cc1ccc(O)cc1)NC(=O)[C@H](CC(N)=O)NC(=O)[C@@H](NC(=O)[C@H](C)NC(=O)CNC(=O)[C@H](CC(C)C)NC(=O)[C@H](Cc1ccc(O)cc1)NC(=O)[C@@H](NC(=O)[C@H](Cc1cnc[nH]1)NC(=O)[C@@H](N)Cc1cnc[nH]1)[C@@H](C)CC)C(C)C)C(=O)N[C@@H](Cc1ccc(O)cc1)C(N)=O [Compound 1, His-His-Ile-Tyr-Leu-Gly-Ala-Val-Asn-Tyr-Ile-Tyr-NHz] (H-HHIYLGAVNYIY-NH2)
Irritation / tolerability [1]: no signs of irritation or tolerability issues | tissue level at time at 24 h [2]: 1210 ng/g | tissue level at time at 72 h [2]: 570 ng/g | level at 24 h [3, 7]: 22000 ng/mL | level at 168 h [3, 7]: 22300 ng/mL | level at 240 h [3, 7]: 18000 ng/mL | tissue level at time at 168 h ([3]; 0.025 mg/eye, Mean concentration in retina): 912 ng/g | tissue level at time at 72 h [3, 8]: 172 ng/g | tissue level at time at 168 h [3, 8]: 204 ng/g | tissue level at time at 240 h [3, 8]: 109 ng/g | level at 24 h [3, 9]: 44000 ng/mL | level at 72 h [3, 9]: 39.6 µg/mL | level at 168 h [3, 9]: 25900 ng/mL | tissue level at time at 24 h [3, 10]: 206 ng/g | tissue level at time at 72 h [3, 10]: 95 ng/g | tissue level at time at 168 h [3, 10]: 51 ng/g | tissue level at time at 240 h [3, 10]: 27.3 ng/g | level at 240 h [3, 11]: 112 ng/mL | tissue level at time at 240 h [3, 11]: 559 ng/g | level at 24 h [3, 12]: 75900 ng/mL | level at 72 h [3, 12]: 125 µg/mL | level at 168 h [3, 12]: 84800 ng/mL | level at 240 h [3, 12]: 79400 ng/mL | tissue level at time at 24 h [3, 13]: 596 ng/g | tissue level at time at 72 h [3, 13]: 1630 ng/g | tissue level at time at 168 h [3, 13]: 354 ng/g | tissue level at time at 240 h [3, 13]: 490 ng/g | half-life ([3]; Terminal t1/2 in Retina): 7 days | half-life ([3]; t1/2 in VH): > 37.5 days | Aqueous solubility (in words) [4]: poor aqueous solubility above pH˜3 | Behaviour on standing overnight [4]: the solution gelled, and the pH dropped by about 0.2 units | solubility ([4]; pH 2.4): ≥ 40 mg/mL | Clearance from VH in the first 24 hours [5]: about half the drug cleared the VH | Terminal half-life in VH [5]: on the order of several days | Terminal t1/2 in Retina ([6]; male, Dutch Belted): 199 h | Mean concentration in retina ([6]; male, Dutch Belted, 0.025 mg/eye, 168 h): 1440 ng/g | VH AUC0-last of Group 1 (2 mg/mL) relative to Groups 2 and 3 (0.5 mg/mL) [6]: approximate four times greater AUC
